Legend:
Type in all cases: in vitro ADME
[1] = Metabolic stability in monkey liver microsomes
Procedure: (§1) Main solutions were prepared according to Table 9 below:
(§2) (II) Two Separate Experiments were Performed • a) With cofactor (NADPH): 25 μL of 10 mM NADPH was added to the culture broth. The final concentration of liver microsomes was 0.5 mg/mL, and the final concentration of NADPH was 1 mM. • b) Without cofactor (NADPH): 25 μL of 100 mM phosphate buffer was added. The final concentration of liver microsomes was 0.5 mg/mL. The mixture was preheated at 37° C. for 10 minutes. (III) 25 μL of […] control compound or test compound solution was added to start the reaction. […] The final concentrations of the test compound and control compound were both 1 μM. The culture broth was cultured in water at 37° C. (IV) Aliquots of 30 μL were collected from the reaction solution at 0.5, 5, 15, 30, and 60 minutes, respectively. 5 volumes of cold acetonitrile and IS (internal standard, containing 100 nM of alprazolam, 200 nM of caffeine, and 100 nM of tolylbutanamide) were added to stop the reaction. […] 100 μL of supernatant was taken and mixed with 100 μL of ultrapure water, equally divided and analyzed with LC-MS/MS.
(§3) All calculations were conducted using Microsoft Excel. The peak area was determined from the extracted ion chromatogram.
(§4) [formula] [formula] [formula] • wherein, QH is the hepatic blood flow (mL/min/kg) in Table 10, and fub is the fraction of drug unbound in plasma, and assumed as 1.

[2] = Metabolic stability in rat liver microsomes
Procedure: as §1, §2, §3, §4

[3] = Metabolic stability in mouse liver microsomes
Procedure: as §1, §2, §3, §4

[4] = read-out: In vitro half-life t1/2
[5] = read-out: In vitro intrinsic clearance CLint

Structure (SMILES): CC(C)NP(=O)(OCc1ccc([N+](=O)[O-])c(Oc2ccc(-c3ccc(F)cc3)c(F)c2)c1)OCC1OC(C2N=CC(N)=NC2=O)C(F)(F)C1O (stereo not drawn) [Compound H11]
- Hepatic Extraction Ratio (ER) [1]: 0.88
- Predicted Hepatic CLH [1]: 38.81 mL/min/kg
- clearance and stability in liver microsomes (in words) [1]: high clearance and poor stability
- Remaining percentage (%) ([1]; NADPH added, 0.5 minutes, 1 μM): 100.00%
- Remaining percentage (%) ([1]; NADPH added, 5 minutes): 46.01%
- Remaining percentage (%) ([1]; NADPH added, 15 minutes): 13.27%
- Remaining percentage (%) ([1]; NADPH added, 30 minutes): 0.59%
- Remaining percentage (%) ([1]; NADPH added, 60 minutes): 0.09%
- Remaining percentage (%) ([1]; NADPH not added, 0.5 minutes): 100.00%
- Remaining percentage (%) ([1]; NADPH not added, 60 minutes): 105.87%
- half-life at 1 μM ([1]; monkey, read-out: In vitro half-life t1/2): 5.06 min
- microsomal CLint at 1 μM ([1]; monkey, read-out: In vitro intrinsic clearance CLint): 275 µL/min/mg
- CLint scaled at 1 μM ([1]; monkey, read-out: Scale-up CLint): 330 mL/min/kg
- Hepatic Extraction Ratio (ER) [2]: 0.71
- Predicted Hepatic CLH [2]: 48.43 mL/min/kg
- clearance and stability in liver microsomes (in words) [2]: medium clearances and certain stability
- Remaining percentage (%) ([2]; NADPH added, 0.5 minutes, 1 μM): 100.00%
- Remaining percentage (%) ([2]; NADPH added, 5 minutes): 85.67%
- Remaining percentage (%) ([2]; NADPH added, 15 minutes): 56.17%
- Remaining percentage (%) ([2]; NADPH added, 30 minutes): 29.55%
- Remaining percentage (%) ([2]; NADPH added, 60 minutes): 13.20%
- Remaining percentage (%) ([2]; NADPH not added, 0.5 minutes): 100.00%
- Remaining percentage (%) ([2]; NADPH not added, 60 minutes): 103.20%
- half-life at 1 μM [2, 4]: 20.1 min
- microsomal CLint at 1 μM [2, 5]: 69 µL/min/mg
- CLint scaled at 1 μM ([2]; read-out: Scale-up CLint): 168 mL/min/kg
- Hepatic Extraction Ratio (ER) [3]: 0.73
- Predicted Hepatic CLH [3]: 65.90 mL/min/kg
- clearance and stability in liver microsomes (in words) [3]: medium clearances and certain stability
- Remaining percentage (%) ([3]; NADPH added, 0.5 minutes, 1 μM): 100.00%
- Remaining percentage (%) ([3]; NADPH added, 5 minutes): 85.55%
- Remaining percentage (%) ([3]; NADPH added, 15 minutes): 55.03%
- Remaining percentage (%) ([3]; NADPH added, 30 minutes): 36.05%
- Remaining percentage (%) ([3]; NADPH added, 60 minutes): 16.85%
- Remaining percentage (%) ([3]; NADPH not added, 0.5 minutes): 100.00%
- Remaining percentage (%) ([3]; NADPH not added, 60 minutes): 93.32%
- half-life at 1 μM [3, 4]: 23.3 min
- microsomal CLint at 1 μM [3, 5]: 59.5 µL/min/mg
- CLint scaled at 1 μM ([3]; read-out: Scale-up CLint): 246 mL/min/kg
